The record followed here is patent publication US20260061016A1, “Extrait aqueux des parties aériennes d'une plante du genre Aster et ses utilisations” (TAUDERMA, priority 2022, published 2026).

Structures are written as SMILES. In brackets after ≈: the same amount, converted by molar mass.

The assay concerns S. aureus registered under number DSM799. Briefly: Minimum inhibitory concentration (MIC), solution culture in 96-well plates followed by drop culture on TSB agar. Format: cell-based, Staphylococcus aureus. As to the method:
The aim of the test is to compare the efficacy of an extract according to Example 1 or Example 2 and an extract of the Aster genus obtained from the root system (Without the Invention). The aim of the test is to identify the minimum inhibitory concentration (MIC) on a strain of S. aureus registered under number DSM799. The minimum inhibitory concentration (MIC) was determined in vitro using S. aureus solution culture in 96-well plates. The initial concentration of S. aureus was 1.25*10^5 CFU/ml. After 48 h incubation in the presence of a series of dilutions of the extract, a 20 μl drop was taken and placed on a TSB agar plate. The diameter of the “drop culture” is about 1.5 cm. Agar plate cultures were then incubated at 37° C. for 14 hours. The positive control corresponds to the maximum growth of a bacterium, that is, when it is fully confluent, meaning that bacterial colonies stick together and none are visible. Different extracts according to the invention and not according to the invention at different concentrations are thus compared. When no colonies, or separate individual colonies, are visible, then the bacteria have been inhibited by the extract. The extract concentration is then defined as MIC. […] The definition of MIC is as follows: Arbitrary units of bacterial growth were determined on agar culture plates (drop method). […]

With `O=C(N[C@H](CO)[C@H](O)c1ccc([N+](=O)[O-])cc1)C(Cl)Cl` [Chloramphenicol], under “Staphylococcus aureus, 48 h incubation with extract dilutions, drop on TSB agar, 14 h at 37° C.”, 50 µg/mL (≈ 155 µM) was the least that counted as inhibitory (MIC). The compound also yielded a Number of colonies (agar drop culture at the MIC) of 0.
